US20260365692A1, “COMPOSITIONS COMPRISING PROTEINS DISSOLVED IN FLUORINATED SOLVENTS, AND METHODS OF MAKING AND USING THE SAME” (priority 2022, published 2026)

Tests used:
human hemoglobin (Hb) = human hemoglobin (Hb) (Homo sapiens, UniProt P68871+P69905); test: Circular dichroism with PFNA, Hb
Description: (§1) FIGS. 14A-14L depict circular dichroism spectra of Hb (FIG. 14A), GFP (FIG. 14B), BSA (FIG. 14C), β-Gal (FIG. 14D), rabbit serum IgG (FIG. 14E), transferrin (FIG. 14F), and urease (FIG. 14G) in the absence (black line) or presence (dashed lines) of PFNA. Increasing dash sequence indicated higher concentration of PFNA. FIG. 14H: Change in molar ellipticity at 216 nm (Δθ216) of PFNA-treated proteins, relative to native controls, as a function of increasing ligand concentration. FIG. 14I: Percentage change in secondary structural motifs of Hb, β-Gal and IgG between the native protein and 1 mM PFNA treated samples. β-sheet structures were further differentiated into parallel and antiparallel conformations. Hb, β-Gal and IgG were prioritized for analysis based on their significant spectral shift in the presence of 1 mM PFNA. FIGS. 14J-14L: Sensograms for BSA (FIG. 14J), β-gal (FIG. 14K), and IgG (FIG. 14L) showing relative response (R.U.) at 10, 25, 50, 75, and 100 μM.
(§2) To explore PFNA-mediated changes in protein structure, dose-response circular dichroism (CD) studies were performed (FIG. 14A-14G). […] Remarkably, these structural changes endured even at sub-stoichiometric PFNA:protein ratios (see 0.001 mM PFNA in […]; protein concentration was constant at 0.01 mM).

transferrin = transferrin (Bos taurus, UniProt Q29443); test: Circular dichroism with PFNA, transferrin; parameters: species or system bovine
Description: as §1, §2

eGFP-PC9 lung cells = test: Imaging of eGFP-PC9 cells with PFNA; type: cell-based, human; settings: PFNA-treated cells
Experimental: FIG. 21 depicts confocal micrographs of eGFP-PC9 cells in the absence (top) and presence (bottom) of PFNA.
FIG. 22 depicts an analysis of average cellular fluorescence (in relative fluorescence units, RFU) for cells treated without/with PFNA for 1, 2 and 5 hours. Statistical significance was determined using unpaired t-test, with n.s.=not significant, * p<0.05, ** p<0.01 and *** p<0.001.
FIG. 23 depicts analysis of cellular fluorescent area (in relative area units, RAU) for cells treated without/with PFNA for 1, 2 and 5 hours. Statistical significance was determined using unpaired t-test, with n.s.=not significant, * p<0.05, ** p<0.01 and *** p<0.001.
Imaging studies were performed to interpret the effect of PFNA exposure on the transport of endogenous proteins in cells. For these experiments, stably transfected eGFP-PC9 lung cells were prepared to track the time dependent sub-cellular localization of eGFP as a model protein target (FIGS. 21, […]).

BSA = BSA (Bos taurus, UniProt P02769); test: 1H and 19F NMR of dispersant:BSA complex; type: binding, bovine
Experimental: FIG. 43 depicts a superimposed ^1H NMR spectra of PD-7 (60 mM) and PD-7:BSA (1000:1 molar ratio) complex.
FIG. 44 depicts a superimposed ^1H NMR spectra of PD-2 (60 mM) and PD-2:BSA (1000:1 molar ratio) complex.
FIG. 45 depicts the change in ^1H (—COOH) and ^19F (—CF3) NMR chemical shift (Δδ) for PD-2 (grey) and PD-7 (black) following coordination with the BSA protein.
1H NMR and 19F NMR spectroscopy were employed to examine the biophysical interactions between BSA and PD-7 in the fluorous solvent. 60 mM PFNA solution in PFOc was aliquoted into lyophilized BSA stocks to achieve 1000:1 PFNA/BSA molar ratio then transferred to thin wall precision tube with Norell Coaxial inserts containing D2O as locking solvent. NMR spectra were collected on a Bruker NEO-400, equipped with a double resonance broadband observe iProbe (capable of automatic tuning and matching) for 1H and 19F nuclei observation. […] This is a 7-fold change in chemical shift relative to PD-7:BSA (FIG. 45).

[1] = presence of BSA, 1000:1 molar ratio, in PFOc

Chain of BSA (P02769 25-607): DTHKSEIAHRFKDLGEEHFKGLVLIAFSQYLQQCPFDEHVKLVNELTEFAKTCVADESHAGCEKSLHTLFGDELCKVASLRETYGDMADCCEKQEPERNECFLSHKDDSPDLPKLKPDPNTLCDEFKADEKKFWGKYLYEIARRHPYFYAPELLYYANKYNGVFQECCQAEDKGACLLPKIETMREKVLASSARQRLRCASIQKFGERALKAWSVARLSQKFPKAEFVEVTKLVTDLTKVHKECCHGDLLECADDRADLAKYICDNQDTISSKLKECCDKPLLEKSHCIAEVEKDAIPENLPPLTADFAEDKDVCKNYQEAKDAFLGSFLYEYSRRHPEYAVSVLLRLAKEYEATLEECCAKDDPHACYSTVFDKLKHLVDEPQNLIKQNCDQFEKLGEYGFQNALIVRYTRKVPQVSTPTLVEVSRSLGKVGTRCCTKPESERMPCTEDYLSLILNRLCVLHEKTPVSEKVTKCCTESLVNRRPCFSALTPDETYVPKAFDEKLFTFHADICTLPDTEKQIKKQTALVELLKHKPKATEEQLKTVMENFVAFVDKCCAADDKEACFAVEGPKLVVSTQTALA
Chain of human hemoglobin (Hb) (P69905 whole entry): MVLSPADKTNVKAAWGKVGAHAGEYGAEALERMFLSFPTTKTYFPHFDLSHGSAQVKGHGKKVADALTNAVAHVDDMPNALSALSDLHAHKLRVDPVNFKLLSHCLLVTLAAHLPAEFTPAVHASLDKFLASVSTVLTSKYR
Chain of human hemoglobin (Hb) (P68871 whole entry): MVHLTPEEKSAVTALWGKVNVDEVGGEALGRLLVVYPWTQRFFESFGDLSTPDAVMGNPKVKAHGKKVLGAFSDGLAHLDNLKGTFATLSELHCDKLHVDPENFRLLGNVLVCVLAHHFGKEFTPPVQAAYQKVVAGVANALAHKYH
Chain of transferrin (Q29443 20-704): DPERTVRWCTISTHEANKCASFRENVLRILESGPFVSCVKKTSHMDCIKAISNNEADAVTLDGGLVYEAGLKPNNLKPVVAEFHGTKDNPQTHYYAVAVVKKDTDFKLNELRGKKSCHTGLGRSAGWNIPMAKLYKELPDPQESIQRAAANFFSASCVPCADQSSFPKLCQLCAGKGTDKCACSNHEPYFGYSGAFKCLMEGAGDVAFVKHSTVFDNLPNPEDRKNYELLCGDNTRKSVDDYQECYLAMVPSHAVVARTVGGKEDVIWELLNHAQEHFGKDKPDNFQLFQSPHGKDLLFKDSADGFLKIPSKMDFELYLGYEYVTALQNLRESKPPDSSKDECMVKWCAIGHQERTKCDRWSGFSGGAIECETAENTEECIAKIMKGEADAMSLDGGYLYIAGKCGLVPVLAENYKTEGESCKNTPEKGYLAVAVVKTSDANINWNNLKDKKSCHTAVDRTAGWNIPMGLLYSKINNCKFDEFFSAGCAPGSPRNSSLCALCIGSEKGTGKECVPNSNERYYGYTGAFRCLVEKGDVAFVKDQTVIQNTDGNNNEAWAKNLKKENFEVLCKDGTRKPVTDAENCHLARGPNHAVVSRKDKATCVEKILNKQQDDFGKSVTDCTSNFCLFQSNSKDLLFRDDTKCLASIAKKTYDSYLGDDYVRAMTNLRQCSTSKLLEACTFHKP

## O=C(O)C(F)(F)C(F)(F)C(F)(F)C(F)(F)C(F)(F)C(F)(F)C(F)(F)C(F)(F)F [Compound 7, perfluoronanonic acid]
Human hemoglobin (Hb); 0.001-0.1 mM PFNA
  CD structural change, Hb: induced non-native α-helical structure
Human hemoglobin (Hb); 1 mM PFNA
  CD structural change, Hb: slight loss of signal
transferrin
  CD structural profile, transferrin: remained largely unchanged
eGFP-PC9 lung cells
  intracellular protein localization: remained relatively unchanged
eGFP-PC9 lung cells; particularly 1 hour
  eGFP expression: significant reduction
BSA; 1H —COOH, PD-2 vs PD-7
  change in chemical shift relative to PD-7:BSA: 7 fold
BSA; [1]
  change in chemical shift of CF3 (Δδ, 19F NMR): 0.006 ppm
  downfield shift of —COOH hydrogen (1H NMR): 0.56 ppm
